Like-named read-outs stand apart in the source and are kept apart here.
Tests used:
Format in all cases: biochemical
[1] = target: T1, CYP3A4 (Homo sapiens, UniProt P08684); test: Determination of compound Kiapp against recombinant CYP3A4 enzyme (BFC fluorescent substrate)
How it was run: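 Kiapp derived from initial velocities over the first 5 min of BFC (5 uM) oxidation, using Morrison's tight-binding equation for non-partial and Szedlacsek's for partial inhibitors. Inhibitor first pre-incubated ≥30 min with CYP3A4 (5.5 or 8 nM, ±b5) in pH 7.0 phosphate/TCEP/2% DMF at room temperature; 200 uM NADPH initiated.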

[2] = target: T1, CYP3A4; test: Determination of IC50 against CYP3A4 by measurement of inhibition of testosterone metabolism (human liver microsomes, 6-β-OH-testosterone by LC-MS/MS); design: 0.1 mg/mL human liver microsomes; conditions: read-out: IC50 (Testo.)
How it was run: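 6-β-OH-testosterone formation was read by LC-MS/MS (MRM, internal standard, standard curve) after eight minutes. Reaction contained testosterone 25 μM, NADPH 1 mM and microsomal protein 0.1 mg/mL in pH 7.4 potassium phosphate (100 mM).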

[3] = target: T1, CYP3A4; test: Determination of IC50 against CYP3A4 by measurement of inhibition of midazolam metabolism (human liver microsomes, 1-hydroxymidazolam by LC-MS/MS); design: 0.1 mg/mL human liver microsomes; conditions: 2 μM midazolam, 0.1 mg/mL human liver microsomes
How it was run: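 Human liver microsomes (0.1 mg/mL) incubated 8 min with 2 μM midazolam and 1 mM NADPH in 100 mM potassium phosphate, pH 7.4. 1-Hydroxymidazolam quantified by LC-MS/MS (MRM) as peak area ratio to internal standard against a metabolite standard curve.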

[4] = Baculo. enzyme preparation, read-out: Kiapp (BFC, Baculo.)
[5] = Super. enzyme preparation, read-out: Kiapp (BFC, Super.)

T1 sequence (P08684 whole entry): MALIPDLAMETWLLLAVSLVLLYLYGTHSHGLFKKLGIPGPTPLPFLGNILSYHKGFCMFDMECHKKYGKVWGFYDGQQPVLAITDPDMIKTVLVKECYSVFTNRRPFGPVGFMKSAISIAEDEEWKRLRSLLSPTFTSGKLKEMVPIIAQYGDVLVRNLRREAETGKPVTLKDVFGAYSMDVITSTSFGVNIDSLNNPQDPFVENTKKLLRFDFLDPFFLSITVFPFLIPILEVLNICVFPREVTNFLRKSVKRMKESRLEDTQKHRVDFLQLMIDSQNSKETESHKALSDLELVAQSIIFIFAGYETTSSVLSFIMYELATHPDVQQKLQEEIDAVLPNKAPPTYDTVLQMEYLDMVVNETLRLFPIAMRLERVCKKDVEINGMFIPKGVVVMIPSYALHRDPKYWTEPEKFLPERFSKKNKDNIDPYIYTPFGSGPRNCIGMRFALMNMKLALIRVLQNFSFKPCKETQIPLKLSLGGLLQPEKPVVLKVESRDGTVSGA

Ki [1, 4] [nM] | Ki [1, 5] [nM] | IC50 [2] [nM] | IC50 [3] [nM] | Compound
> 1000 | 515 | > 750 | > 750 | COc1cncc(NS(=O)(=O)c2ccccc2C(=O)N2CCC(O)CC2)c1 [Example 365, 2-[(4-hydroxypiperidin-1-yl)carbonyl]-N-(5-methoxypyridin-3-yl)benzenesulfonamide]
553 | 65.1 | > 750 | 253 | COc1cncc(NS(=O)(=O)c2ccccc2C(=O)N2CCC(OC)CC2)c1 [Example 366, 2-[(4-methoxypiperidin-1-yl)carbonyl]-N-(5-methoxypyridin-3-yl)benzenesulfonamide]
570 | 148 | > 750 | 317 | COc1cncc(NS(=O)(=O)c2ccccc2C(=O)N2CCOCC2)c1 [Example 367, N-(5-methoxypyridin-3-yl)-2-(morpholin-4-ylcarbonyl)benzenesulfonamide]
7.6 | 1.1 | 18 | 6 | COc1cncc(NS(=O)(=O)c2ccccc2C(=O)NCc2ccc(F)c(F)c2)c1 [Example 368, N-(3,4-difluorobenzyl)-2-{[(5-methoxypyridin-3-yl)amino]sulfonyl}benzamide]
350 | 53.2 | 181 | 98 | COc1cncc(NS(=O)(=O)c2ccccc2C(=O)N2CCCC2)c1 [Example 369, N-(5-methoxypyridin-3-yl)-2-(pyrrolidin-1-ylcarbonyl)benzenesulfonamide]
52.9 | 19 | 8 | 12 | COc1cncc(NS(=O)(=O)c2ccccc2C(=O)N(C)CCc2ccccc2)c1 [Example 370, 2-{[(5-methoxypyridin-3-yl)amino]sulfonyl}-N-methyl-N-(2-phenylethyl)benzamide]
248 | 58.8 | 10 | 5 | CC(C)CCN(C)C(=O)c1ccccc1S(=O)(=O)Nc1cccnc1 [Example 371, N-methyl-N-(3-methylbutyl)-2-[(pyridin-3-ylamino)sulfonyl]benzamide]
79 | 18 | 23 | 15 | COc1cncc(NS(=O)(=O)c2ccccc2C(=O)N(C)Cc2ccccc2)c1 [Example 372, N-benzyl-2-{[(5-methoxypyridin-3-yl)amino]sulfonyl}-N-methylbenzamide]
221 | 45 | 49 | 37 | COc1ccc(CNC(=O)c2ccccc2S(=O)(=O)Nc2cncc(OC)c2)cc1 [Example 373, N-(4-methoxybenzyl)-2-{[(5-methoxypyridin-3-yl)amino]sulfonyl}benzamide]
483 | 74.5 | 79 | 29 | COc1cncc(NS(=O)(=O)c2ccccc2C(=O)NC(C)(C)C)c1 [Example 374, N-(tert-butyl)-2-{[(5-methoxypyridin-3-yl)amino]sulfonyl}benzamide]
142 | 31.6 | 42 | 22 | COc1cncc(NS(=O)(=O)c2ccccc2C(=O)NCC2CCCC2)c1 [Example 375, N-(cyclopentylmethyl)-2-{[(5-methoxypyridin-3-yl)amino]sulfonyl}benzamide]
117 | 73 | 43 | 27 | CCCCN(C)C(=O)c1ccccc1S(=O)(=O)Nc1cccnc1 [Example 376, N-butyl-N-methyl-2-[(pyridin-3-ylamino)sulfonyl]benzamide]
76.3 | 17.6 | 33 | 21 | CCCCCNC(=O)c1ccccc1S(=O)(=O)Nc1cncc(OC)c1 [Example 377, 2-{[(5-methoxypyridin-3-yl)amino]sulfonyl}-N-pentylbenzamide]
78 | 18.7 | 14 | 13 | COc1cncc(NS(=O)(=O)c2ccccc2C(=O)NCc2ccccc2F)c1 [Example 378, N-(2-fluorobenzyl)-2-{[(5-methoxypyridin-3-yl)amino]sulfonyl}benzamide]
120 | 24.6 | 7 | 8 | COc1cncc(NS(=O)(=O)c2ccccc2C(=O)NCCC(C)C)c1 [Example 379, 2-{[(5-methoxypyridin-3-yl)amino]sulfonyl}-N-(3-methylbutyl)benzamide]
215 | 60.7 | 29 | 21 | COc1cncc(NS(=O)(=O)c2ccccc2C(=O)NCC(C)(C)C)c1 [Example 380, N-(2,2-dimethylpropyl)-2-{[(5-methoxypyridin-3-yl)amino]sulfonyl}benzamide]
52 | 2.79 | 64 | 30 | COc1cncc(NS(=O)(=O)c2ccccc2C(=O)NC(C)(C)c2ccccc2)c1 [Example 381, 2-{[(5-methoxypyridin-3-yl)amino]sulfonyl}-N-(1-methyl-1-phenylethyl)benzamide]
505 | 20.1 | 263 | 68 | COC[C@H](C)NC(=O)c1ccccc1S(=O)(=O)Nc1cncc(OC)c1 [Example 382, N-[(1S)-2-methoxy-1-methylethyl]-2-{[(5-methoxypyridin-3-yl)amino]sulfonyl}benzamide]
912 | 31 | 348 | 67 | COc1cncc(NS(=O)(=O)c2ccccc2C(=O)NCCc2ccncc2)c1 [Example 383, 2-{[(5-methoxypyridin-3-yl)amino]sulfonyl}-N-(2-pyridin-4-ylethyl)benzamide]
560 | 19.2 | 178 | 43 | COc1cncc(NS(=O)(=O)c2ccccc2C(=O)NCCc2cccnc2)c1 [Example 384, 2-{[(5-methoxypyridin-3-yl)amino]sulfonyl}-N-(2-pyridin-3-ylethyl)benzamide]
> 1000 | 216 | > 750 | > 750 | COc1cncc(NS(=O)(=O)c2ccccc2C(=O)NCCN2CCCCC2)c1 [Example 385, 2-{[(5-methoxypyridin-3-yl)amino]sulfonyl}N-(2-piperidin-1-ylethyl)benzamide]
> 1000 | 174 | > 750 | > 750 | COc1cncc(NS(=O)(=O)c2ccccc2C(=O)NCCN2CCCC2)c1 [Example 386, 2-{[(5-methoxypyridin-3-yl)amino]sulfonyl}-N-(2-pyrrolidin-1-ylethyl)benzamide]
> 1000 | 224 | > 750 | > 750 | COc1cncc(NS(=O)(=O)c2ccccc2C(=O)NCCC2CCCN2C)c1 (stereo not shown) [Example 387, 2-{[(5-methoxypyridin-3-yl)amino]sulfonyl}N[2-(1-methylpyrrolidin-2-yl)ethyl]benzamide]
16 | < 1 | 3 | 9 | COc1cncc(NS(=O)(=O)c2ccccc2C(=O)NCCc2ccccc2C)c1 [Example 388, 2-{[(5-methoxypyridin-3-yl)amino]sulfonyl}-N-[2-(2-methylphenyl)ethyl]benzamide]
241 | 2.81 | 57 | 24 | COc1cncc(NS(=O)(=O)c2ccccc2C(=O)N2CCC(C)CC2)c1 [Example 389, N-(5-methoxypyridin-3-yl)-2-[(4-methylpiperidin-1-yl)carbonyl]benzenesulfonamide]
84.9 | 1.78 | 70 | 18 | CCCN(CC1CC1)C(=O)c1ccccc1S(=O)(=O)Nc1cncc(OC)c1 [Example 390, N-(cyclopropylmethyl)-2-{[(5-methoxypyridin-3-yl)amino]sulfonyl}-N-propylbenzamide]
317 | 6.26 | 63 | 27 | COc1cncc(NS(=O)(=O)c2ccccc2C(=O)N2CCCC(C)(C)C2)c1 [Example 391, 2-[(3,3-dimethylpiperidin-1-yl)carbonyl]-N-(5-methoxypyridin-3-yl)benzenesulfonamide]
> 1000 | 320 | 9 | 65 | O=C(c1ccccc1S(=O)(=O)Nc1cncc(Br)c1)N1CCCCC1 [Example 392, N-(5-bromopyridin-3-yl)-2-(piperidin-1-ylcarbonyl)benzenesulfonamide]

From patent publication US7868026B2, “Therapeutic compounds” (Pfizer Inc., priority 2005, dated 2011)
